Reference: EP2042178A1, “Ocular formulations comprising 5-chlorouracil and use thereof” (INSTITUT NATIONAL DE LA SANTE ET DE LA RECHERCHE MEDICALE …, priority 2007, dated 2009)
In brackets after ≈: the same amount, converted by molar mass. Where two headings read alike, the source gives them in different places.

Legend:
[1] = tested on: human conjunctival cell line (Wong-Kilbourne derivative of Chang conjunctiva); assay: Hoechst 33342 test (chromatin condensation, with propidium iodide); assay type: cell-based; settings: for chromatin condensation compared to control cells: up to 1 µg/ml; for chromatin condensation: increasing concentrations >1 µg/ml
Method: (§1) Normal culture development was assessed daily by phase-contrast microscopy. Confluent cultures were removed by gentle trypsin incubation, and cells were counted. For cytotoxicity experiments, cells were seeded into 96-well culture plates (18'000 cells per well; Nunc, Roskild, Denmark) until sub-confluence (culture surface covering nearly 70%) and were then exposed to the different formulations. Experiments were performed by microplate cold light fluorometry (Fluorolite 1000 Dynex; Issy-les-Moulineaux, France), as previously validated (Debbasch et al., 2001, Invest. Ophthalmol. Vis. Sci., 42, 642-652). According to the recommendations of the European Center for the Validation of Alternative Methods (ECVAM) and to previously validated methods in the Chang cell line, two cellular markers were evaluated: cellular viability and chromatin condensation. Cellular viability was evaluated with a neutral red (Fluka, Ronkonkoma, NY) test with fluorometric detection (excitation: 535 nm; emission: 600 nm). Hoechst 33342 (Molecular Probes, Eugene, OR) is an intercalating dye, which allows the determination of the total chromatin quantity variations and the degree of chromatin condensation. […] was used on cells at a final concentration of 10 µg/ml (excitation: 360 nm; emission: 450 nm). 0.5 mg/ml propidium iodide (Roche Diagnostics Corp., Meylan, France) was added to the Hoechst solution, to control necrotic cells, as previously validated. The supravital uptake of Hoechst 33342 combined with extrusion of propidium iodide was used as an assay for apoptosis as described in Belloc et al., 1994, Cytometry, 17, 59-65. […] It is defined by a series of cellular changes: (a) the cell shrinks, looses contact with neighbouring cells or surrounding matrix and starts to display intracellular proteins on its surface; (b) the chromatin in the nucleus condenses and the DNA is cleaved into small fragments; (c) the plasma membrane then begins to show a bubbled appearance and small membrane bound bodies break off containing intracellular material which can include nuclear matter and cellular organelles. These fragments are known as "apoptotic bodies" which are quickly removed by phagocytes or by neighbouring cells.
The value of IC50 (concentration inhibiting 50% of cell population) was used to compare 5-FU and 5-CU cytotoxicities. Dulbecco's minimum essential medium was used as a control, and was used to dilute the tested molecules.

rabbit fibroblasts = assay: Trypan blue exclusion test / cell counting, fibroblast proliferation; settings: for concentration at which inhibition of cell proliferation is significant: 24 hours exposure; for inhibition at 10 µg/mL / inhibition at 20 µg/mL / inhibition at 100 µg/mL: Oryctolagus cuniculus, Fibroblast, 24 h, read-out: inhibition of cell proliferation
[2] = In vitro rate of release from POE IV formulation; assay type: physicochemical
Method: Formulations were prepared under a laminar airflow hood. […] The viscous mixture was conditioned in a 1.0 ml syringe, each sample being 200µl (240 mg). In a preliminary investigation, the in vitro rate of release of 5-CU was determined according to the procedure described by Merkli et al., 1998, J. Control. […] 5-FU in vitro rate of release from POE IV has also previously been described by Heller et al, 2005, Adv. Drug Delivery Rev., 57(14)2053-62.

[3] = tested on: rabbit Tenon's capsule fibroblasts; settings: for cell death: sub-confluent fibroblasts, 24 hours
Method: Cells were seeded at a density of 2 x 10^4 cells / well until reaching subconfluency and were then treated with 5-chlorouracil (5-CU) or with 5-fluorouracil (5-FU) at different concentrations (0, 0.5, 5, 50, 500, 1'000 or 5'000 µg/ml) for 24 hours.
MTT (Sigma) (1mg/ml in PBS) was added to the wells and plates were incubated at 37°C for 1 hour. Isopropanol was then added and mixed thoroughly to dissolve the dark blue crystals and the plates were rapidly read on a BIO-RAD Model 450 Microplate reader, using a test wavelength of 570 nm and a reference wavelength of 630 nm.

[4] = tested on: human conjunctival cell line (Wong-Kilbourne derivative of Chang conjunctiva); assay: Neutral red test (cellular viability); assay type: cell-based; settings: for cell viability decrease: concentrations up to 10 µg/ml; for IC50: Homo sapiens, 72 hours of exposure
Method: as §1
In these experiments, cell viability and chromatin condensation were evaluated after a 24 and 72 hour-incubation, with […] of 5-chlorouracil as compared with the same concentrations of 5-fluorouracil. The value of IC50 (concentration inhibiting 50% of cell population) was used to compare 5-FU and 5-CU cytotoxicities. Dulbecco's minimum essential medium was used as a control, and was used to dilute the tested molecules.

[5] = same conditions, Heller et al., 2005; cited from earlier work
[6] = sub-conjunctival injection, cited from earlier work
[7] = Hoechst and neutral red results combined, 72 hours of exposure
[8] = Hoechst test, high concentrations

Row | Compound | chromatin condensation compared to control cells ([1]; 24 hours) | type of cell death induced [1, 7] | type of cell death induced [1, 8] | concentration at which inhibition of cell proliferation is significant (rabbit fibroblasts) [µg/mL] | inhibition at 10 µg/mL (rabbit fibroblasts) [%] | inhibition at 20 µg/mL (rabbit fibroblasts) [%] | inhibition at 100 µg/mL (rabbit fibroblasts) [%] | cell viability decrease ([4]; 24 hour-incubation) | IC50 [4] [µg/mL] | also measured
1 | O=c1[nH]cc(Cl)c(=O)[nH]1 [5-CU, 5-chloro-1H-pyrimidine-2,4-dione] | no significant difference | apoptotic cell death | apoptotic cell death | ≥ 10 | 23 | 23 | 25 | about 20% | 2500 (≈ 17.1 mM) | Hoechst fluorescence compared with identical 5-FU concentrations ([1]; 24 hours, increasing concentrations up to 1'000 µg/ml, P=0.0079): very significant increase; daily release rate ([2]; 1% 5-CU from POE IV formulation, for up to forty days): approximately 8 µg/day; in vitro rate of release ([2]; from POE IV, 1% wt/wt, over a period of up to 40 days, preliminary investigation): 8 micrograms per day; times less toxic to non-proliferating cells than 5-FU ([3]; rabbit, 24 h): 1'000 times; cell death ([3]; 5'000 µg/ml): 33%; cell death ([4]; 24 hour-incubation, 1'000 µg/ml): 35%; cell death ([4]; 72 hour-incubation, 4 mg/ml (highest concentration)): 75%
2 | O=c1[nH]cc(F)c(=O)[nH]1 [5-FU, 5-fluorouracil] | no significant difference | apopto-necrotic cell death | necrotic cell death | ≥ 10 | 28 | 40 | 43 | about 20% | 7 (≈ 0.0538 mM) | chromatin condensation ([1]; 24 hours, P=0.0079): dose-dependant significant decrease; chromatin condensation ([1]; 72 hours, P=0.02): dose-dependant significant decrease; in vitro rate of release from POE IV [5]: 100 µg per day; corneal levels ([6]; at 1 hour): 20 µg/g; corneal levels ([6]; at 24 hours): 5 µg/g; time for which ID50 levels are maintained ([6]; at the injection site and 180° from it): up to 24 hours; cell death ([3]; 5 µg/ml): 39.1%; cell death ([3]; 50 µg/ml): 51%; cell death ([4]; 24 hour-incubation, 100 µg/ml): 55%; cellular viability ([4]; 72 hour-incubation, 1 µg/ml): significantly decreased
